Laboratory results taken from publication PMC6028423, “Synthetic molecular evolution of hybrid cell penetrating peptides” (Nature Communications, 2018).

Columns and labels:
HeLa cells = test: TAMRA delivery assay, flow cytometry; type: cell-based, human; conditions: tested as peptide-TA; 0.5 µM peptide-TA + 4.5 µM peptide-C, 30 min, serum-free DMEM, trypsinized, live SYTOX Green-negative cells; temperature not given
Method: (§1) Parent and daughter sequences lacking the PNA cargo were characterized to determine the effect of the cargo on delivery. Sequences were labeled with the fluorophore tetramethylrhodamine (TAMRA) on a C-terminal cysteine residue (PDEP-TA) and their delivery to multiple human cell types was measured by flow cytometry. To test the efficiency under stringent conditions, we used peptide concentrations of only 5 μM total containing 0.5 μM dye-labeled peptide. Peptides were incubated with HeLa, RAW264.7, HepG2, and MCF-7 cells for 30 min at 4 °C, 21 °C, or 37 °C, followed by trypsinization to detach cells for counting and to digest any externally bound peptide. PDEP-TA conjugates are not toxic at this concentration range (Supplementary Figure 2). Flow cytometric analysis (Fig. 3 and Supplementary Figure 4) was used to count TAMRA-positive cells and to measure TAMRA intensity distributions. Confocal microscopy was used to visualize peptide distribution in cells for each cell type (Fig. 3). Time series confocal images of PDEP P17-TA incubated HeLa cells at 21 °C and 37 °C (Fig. 3a) show immediate punctate membrane association. At 37 °C, but not at 21 °C, uptake of dye in punctate structures is observed. At both temperatures, individual cells rapidly and stochastically show the appearance of TAMRA with a diffuse cytosolic distribution in addition to bright puncta. All PDEPs behave similarly and maximum intensity is reached by 30 min at all temperatures. Cell surface-bound peptide is not observed under flow cytometry conditions (Fig. 3a).
(§2) HeLa, RAW264.7, HCT116, HepG2, and MCF-7 cells were plated in 12-well plates at 100,000 cells/well. After 24 h, cells were gently washed in PBS, topped with 500 µl of PDEP-TA solution containing 0.5 µM PDEP-TA + 4.5 µM PDEP-C in sfDMEM without phenol red, and incubated for 30 min at either 4 °C, 23 °C, or 37 °C. […] Cells were transferred to a filter-topped flow cytometry tube and analyzed on a BD LSR II flow cytometer. Cells displaying a normal morphology were gated and first analyzed for GFP fluorescence using the […] laser. GFP-negative cells were used to generate a histogram of TAMRA fluorescence, measured with the […] laser.
(§3) Supplementary Figure 4. Flow cytometry gating strategy for Peptide-C-TA treated cells. In this example, HeLa cells were treated with 5 μM P17-C-TA for 30 minutes at 37°C. Live cells were identified by forward and side scatter. Doublets were excluded in two gating steps using SSC-H x SSC-W and FSC-H x FSC-W. Cells with compromised membranes permitting SYTOX green entry were excluded. The percent of the remaining cells testing positive for TAMRA fluorescence were defined as those with a fluorescence value ≥3000. Additionally, the mean fluorescence for all SYTOX negative cells was recorded.

HepG2 cells = test: TAMRA delivery assay, flow cytometry; type: cell-based, human; conditions: tested as peptide-TA; 0.5 µM peptide-TA + 4.5 µM peptide-C, 30 min, serum-free DMEM, trypsinized, live SYTOX Green-negative cells; temperature not given
Method: as §1, §2, §3

MCF-7 cells = test: TAMRA delivery assay, flow cytometry; type: cell-based, human; conditions: tested as peptide-TA; 0.5 µM peptide-TA + 4.5 µM peptide-C, 30 min, serum-free DMEM, trypsinized, live SYTOX Green-negative cells; temperature not given
Method: as §1, §2, §3

[1] = system: HeLa, RAW264.7, HepG2, and MCF-7 cells; test: TAMRA delivery, flow cytometry and confocal microscopy, statements over several cell types or cell type not stated; type: cell-based; conditions: cell type and temperature not stated; threshold just above cells treated with free TAMRA; single example
Method: Parent and daughter sequences lacking the PNA cargo were characterized to determine the effect of the cargo on delivery. Sequences were labeled with the fluorophore tetramethylrhodamine (TAMRA) on a C-terminal cysteine residue (PDEP-TA) and their delivery to multiple human cell types was measured by flow cytometry. To test the efficiency under stringent conditions, we used peptide concentrations of only 5 μM total containing 0.5 μM dye-labeled peptide. Peptides were incubated with HeLa, RAW264.7, HepG2, and MCF-7 cells for 30 min at 4 °C, 21 °C, or 37 °C, followed by trypsinization to detach cells for counting and to digest any externally bound peptide. […]. […]
HeLa, RAW264.7, HCT116, HepG2, and MCF-7 cells were plated in 12-well plates at 100,000 cells/well. […] Cells were transferred to a filter-topped flow cytometry tube and analyzed on a BD LSR II flow cytometer. Cells displaying a normal morphology were gated and first analyzed for GFP fluorescence using the […] laser. GFP-negative cells were used to generate a histogram of TAMRA fluorescence, measured with the […] laser. […]
Cells were treated as described above for the TAMRA delivery assay and immediately imaged to avoid artifacts resulting from fixation. The distribution of TAMRA and Sytox Green was analyzed using a confocal scanning Nikon Eclipse Ti2 inverted microscope using a 40× oil-immersion objective. […]

RAW264.7 cells = test: TAMRA delivery assay, flow cytometry; type: cell-based; conditions: tested as peptide-TA; 0.5 µM peptide-TA + 4.5 µM peptide-C, 30 min, serum-free DMEM, trypsinized, live SYTOX Green-negative cells; temperature not given
Method: Parent and daughter sequences lacking the PNA cargo were characterized to determine the effect of the cargo on delivery. Sequences were labeled with the fluorophore tetramethylrhodamine (TAMRA) on a C-terminal cysteine residue (PDEP-TA) and their delivery to multiple human cell types was measured by flow cytometry. To test the efficiency under stringent conditions, we used peptide concentrations of only 5 μM total containing 0.5 μM dye-labeled peptide. Peptides were incubated with HeLa, RAW264.7, HepG2, and MCF-7 cells for 30 min at 4 °C, 21 °C, or 37 °C, followed by trypsinization to detach cells for counting and to digest any externally bound peptide. PDEP-TA conjugates are not toxic at this concentration range (Supplementary Figure 2). […]
HeLa, RAW264.7, HCT116, HepG2, and MCF-7 cells were plated in 12-well plates at 100,000 cells/well. […] Cells were transferred to a filter-topped flow cytometry tube and analyzed on a BD LSR II flow cytometer. Cells displaying a normal morphology were gated and first analyzed for GFP fluorescence using the […] laser. GFP-negative cells were used to generate a histogram of TAMRA fluorescence, measured with the 543 nM laser.
Supplementary Figure 4. […] The percent of the remaining cells testing positive for TAMRA fluorescence were defined as those with a fluorescence value ≥3000. Additionally, the mean fluorescence for all SYTOX negative cells was recorded.

[2] = system: HeLa pTRE-LucIVS2-705 cells; test: PNA705 mediated luciferase splice correction (luminescence per µg protein); type: cell-based, human; conditions: for PNA705 delivery efficiency in words (Fig. 2a): tested as CPP-PNA705 conjugate, up to 5 µM
Method: Cells were treated for 30 min in serum-free media at 37 °C, and then allowed to recover for 24 h in complete media. […] After 24 h, cell lysates were assayed for luciferase by luminescence (Fig. 2a) and for splice corrected mRNA by quantitative PCR (Fig. 2b). To control for total cell density, lysates were also analyzed for total protein by the BCA assay.
HeLa pTRE-LucIVS2-705 cells were seeded on flat-bottom 96-well plates at 10,000 cells per well in 200 µl complete DMEM. The following day, cells were washed in phosphate buffered saline and topped with premixed 50 µl 2× serum/phenol red-free DMEM (Gibco) + 50 µl peptide cleavage solution (ddH2O + peptide). Cells were transfected for 30 min at 37 °C with 5% CO2. The transfection solution was removed, cells were topped with 100 µl complete DMEM. The next day (24-h recovery) cells were washed in PBS. Cells were lysed in 20 µl reporter lysis buffer (Promega E4030) following the manufacturer’s protocol. A volume of 10 μl of lysate from each well was transferred to a 96-well solid black plate; 100 μl of luciferase assay reagent from the Luciferase Assay System (Promega E1500) was added, the plate was agitated for 10 s, and luminescence was measured with a BioTek Synergy 2 plate reader with injector ports. Total protein was measured with a BCA assay (described below). Data were expressed as RLU per µg protein (RLU (µg protein)^−1). During screening, positive wells were defined as those whose RLU per µg protein values exceeded the average for the plate by at least three standard deviations. Subsequent PNA705 delivery experiments were conducted as described above except that volumes were scaled for 24-well plate format.
The remaining 10 µl of lysate from the splice correction assay was combined with 100 µl of the BCA reagents and incubated for 1–4 h at 37 °C per the manufacturer’s protocol. Absorbance at 562 nm was measured using a measured with a BioTek Synergy 2 plate reader.

[3] = system: HeLa pTRE-LucIVS2-705 cells; test: qRT-PCR of correctly spliced luciferase mRNA; type: cell-based, human; conditions: 1.25 µM CPP-PNA705, 30-min incubation, 24-h recovery
Method: To quantify splice correction at the mRNA level, we designed qRT-PCR primers to target the splice junction of the properly spliced mRNA transcript. […] We observe a >100 fold increase in properly spliced luciferase mRNA in cells treated with PDEP–PNA705 relative to control. At 5 μM, the most efficient chimera, P14-PNA705, is 30-fold better than tat, 7-fold better than penetratin, and 4-fold better than Arg9.
HeLa pTRE-LucIVS2 cells were treated as described above with PDEP–PNA705 constructs at varying concentrations. RNA was extracted using the Direct-Zol^TM RNA purification system (Zymo Research) and reverse transcribed with the iScript cDNA synthesis kit (Bio-Rad), and mRNA splice correction was detected using PowerUp SYBR Green master mix (ThermoFisher) on an Applied Biosystems QuantStudio 6 using the following primers sets: […]
The relative quantification of correctly spliced mRNA (90 bp amplicon) over background was calculated using the Pfaffl model.

Row | Compound | HeLa %+ (TAMRA-positive cells) (HeLa cells) | HEPG2 %+ (TAMRA-positive cells) (HepG2 cells) | MCF-7 %+ (TAMRA-positive cells) (MCF-7 cells) | TAMRA-positive cells, example flow cytometry results (Fig. 3b) [1] | RAW %+ (TAMRA-positive cells) (RAW264.7 cells) | PNA705 delivery efficiency, head-to-head comparison in the response to reviewers ([2]; PepB-PNA705, P17-PNA705, tat-PNA705 and no treatment, same approach as in the paper) | PNA705 delivery efficiency in words (Fig. 2a) [2] | increase in corrected mRNA over control [3]
1 | CN(C)c1ccc2c(-c3ccccc3C(=O)[O-])c3ccc(N(C)C)cc3[o+]c2c1 [TAMRA, tetramethylrhodamine] | 0.0% | 0.0% | 14.4% | 1.99% | 6.90% | – | – | –
2 | (RXRRBR)2 [Peptide B, (RXRRBR)2, eight arginines and four linear linkers; drives delivery of splice correcting PMOs in vivo] | – | – | – | – | – | much more efficient than tat | relatively low PNA delivery efficiency | –
3 | Arg9 | 8.1% | 16.6% | 1.6% | – | 64.5% | – | much better than tat itself | not measurably higher than control
